According to the NIST ThermoML archive (doi:10.1021/je700700f):

Tests used:
[1] = 298.15 K, Liquid; for viscosity: Capillary tube (Ostwald / Ubbelohde) method
[2] = xn = mol fraction of the nth substance listed; details: 298.15 K, 101 kPa, Liquid; for viscosity: Capillary tube (Ostwald / Ubbelohde) method
[3] = refractive index (Na D-line) (dimensionless); xn = mol fraction of the nth substance listed; details: 298.15 K, 101 kPa, Liquid, Standard Abbe refractometry
[4] = refractive index (Na D-line) (dimensionless); details: 298.15 K; 101.33 kPa; Liquid; Standard Abbe refractometry

CCOS(=O)(=O)[O-].CCn1cc[n+](C)c1 [1-ethyl-3-methylimidazolium ethyl sulfate]
[1], 101.33 kPa
Details | mass density [kg/m3] | viscosity [mPa·s]
– | 1237.63 | 97.58

CC(C)O [propan-2-ol] + O
Details | mass density, [2] [kg/m3] | refractive index, [3] | viscosity, [2] [mPa·s]
x1 = 0.0491 | 974.6 | 1.3456 | 1.718
x1 = 0.1008 | 953.6 | 1.3557 | 2.495
x1 = 0.2011 | 912.6 | 1.365 | 3.038
x1 = 0.2994 | 881.6 | 1.3697 | 3.087
x1 = 0.3992 | 857.7 | 1.3724 | 2.924
x1 = 0.4981 | 838.8 | 1.374 | 2.693
x1 = 0.5979 | 823.5 | 1.3749 | 2.489
x1 = 0.6987 | 810.6 | 1.3754 | 2.274
x1 = 0.7993 | 799.4 | 1.3756 | 2.153
x1 = 0.8998 | 789.8 | 1.3754 | 2.073
x1 = 0.9495 | 785.4 | 1.3752 | 2.063
x1 = 1 | 780.7 | 1.375 | 2.082

CCCO [propan-1-ol] + O
Details | mass density, [2] [kg/m3] | refractive index, [3] | viscosity, [2] [mPa·s]
x1 = 0.0504 | 975.1 | 1.34612 | 1.616
x1 = 0.0993 | 953.3 | 1.35475 | 2.121
x1 = 0.1986 | 914.9 | 1.36491 | 2.599
x1 = 0.2979 | 887.2 | 1.37116 | 2.691
x1 = 0.3949 | 866.9 | 1.37516 | 2.61
x1 = 0.4955 | 850.3 | 1.37805 | 2.494
x1 = 0.5953 | 836.9 | 1.38008 | 2.339
x1 = 0.6995 | 825.6 | 1.38154 | 2.221
x1 = 0.7969 | 816.3 | 1.38239 | 2.124
x1 = 0.8983 | 807.7 | 1.38299 | 2.026
x1 = 0.9518 | 803.5 | 1.38308 | 1.998
x1 = 1 | 799.6 | 1.38309 | 2.017

CCCO [propan-1-ol]
[1], 101 kPa
Details | mass density [kg/m3] | viscosity [mPa·s]
– | 799.6 | 2.017

Details | refractive index
[4] | 1.38309

CC(C)O [propan-2-ol]
[1], 101 kPa
Details | mass density [kg/m3] | viscosity [mPa·s]
– | 780.7 | 2.082

Details | refractive index
[4] | 1.375
